Data set [1] deals with T1, human amylin receptor (Homo sapiens, UniProt O60896+P30988).
T1 construct: host or cells: CHO-K1/Ga15/AMY3 cells, further stably transfected with a CRE-luciferase plasmid
T1 sequence (P30988 25-474): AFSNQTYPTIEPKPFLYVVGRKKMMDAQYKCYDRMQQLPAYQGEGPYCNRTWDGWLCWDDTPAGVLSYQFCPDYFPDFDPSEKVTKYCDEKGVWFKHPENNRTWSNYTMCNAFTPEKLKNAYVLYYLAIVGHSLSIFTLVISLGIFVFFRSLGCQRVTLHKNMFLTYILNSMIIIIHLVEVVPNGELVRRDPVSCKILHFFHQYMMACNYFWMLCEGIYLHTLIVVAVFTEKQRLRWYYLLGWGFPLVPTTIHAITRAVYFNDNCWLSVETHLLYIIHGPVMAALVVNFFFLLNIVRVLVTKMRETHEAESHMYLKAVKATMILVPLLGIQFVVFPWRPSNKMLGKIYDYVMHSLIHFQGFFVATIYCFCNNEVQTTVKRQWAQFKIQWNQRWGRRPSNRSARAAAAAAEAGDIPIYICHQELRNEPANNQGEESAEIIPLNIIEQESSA
T1 sequence (O60896 24-148 partner): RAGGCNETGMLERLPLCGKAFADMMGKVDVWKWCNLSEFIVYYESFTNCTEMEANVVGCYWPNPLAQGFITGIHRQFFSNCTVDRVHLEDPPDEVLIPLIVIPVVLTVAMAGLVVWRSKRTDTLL
The data set is described as follows: Luciferase assay of amylin derivatives in amylin receptor/CRE-luc CHO cell line. The data set is classed as cell-based. Conditions: CHO-K1/Ga15/AMY3 CRE-luc cells, 24 hours incubation, F12 medium containing 10% FBS; read-out: EC50.
Method: The experiment was intended to detect the activity or efficacy of the amylin derivatives on a human amylin receptor in vitro by luciferase assay.
50 μL of growth medium (F12 medium containing 10% FBS) was added into each well of a white 96-well plate, and the stably transfected amylin/CRE-lue CHO cells were inoculated into the white 96-well plate at a density of about 20,000 cells/well for activity determination.

Data set [2] in a line: Freeze-thaw stability of derivatives (freeze-thaw yield by liquid chromatography). The data set is classed as physicochemical. Conditions: for Dissolution property: appearance after dissolution at 0.2 mg/ml in 20 mM phosphate buffer solution (PB) (pH 7.0); for Freeze storage property: appearance after overnight storage at −20° C. and thawing to room temperature, 0.2 mg/ml in 20 mM PB (pH 7.0); for Freeze storage yield: concentration of polypeptide after freezing and thawing / concentration before, by liquid chromatography, −20° C. overnight. The method in brief: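 Freeze-thaw yield is the ratio of peptide concentration after versus before one overnight −20° C freeze and room-temperature thaw, both quantified by RP-HPLC of supernatant after centrifugation. Samples were 0.2 mg/ml freeze-dried derivative in 20 mM PB, pH 7.0.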

Numbered stars: 1 amine (or outer) side, 2 acyl side, 3 side chain; on linkers, the order of the positions; unused ones are H or OH. Bridge positions count the residues as written; N and C are the ends. Square brackets hold non-standard residues; d marks the D form. Side chains are listed from the residue outwards. Peptide text beside a SMILES is read from it. * marks the point of attachment. C20 diacid = O=C(O)CCCCCCCCCCCCCCCCCCC(=O)*; C18 diacid = O=C(O)CCCCCCCCCCCCCCCCC(=O)*; γGlu = O=C(O)[C@H](CCC(=O)[*:2])N[*:1]; Hyp = O=C(O)[C@@H]1C[C@@H](O)CN1; AEEA = NCCOCCOCC(=O)O

Broadly, the EC50 is the midpoint of the concentration-response curve.

In the case of `CC[C@H](C)[C@H](NC(=O)[C@@H]1CCCN1C(=O)CNC(=O)[C@H](CC(C)C)NC(=O)[C@H](CC(N)=O)NC(=O)[C@H](CCCCNC(=O)COCCOCCNC(=O)COCCOCCNC(=O)CC[C@H](NC(=O)CCCCCCCCCCCCCCCCC(=O)O)C(=O)O)NC(=O)[C@H](CO)NC(=O)[C@H](CO)NC(=O)[C@H](Cc1c[nH]cn1)NC(=O)[C@H](CCCNC(=N)N)NC(=O)[C@H](CC(C)C)NC(=O)[C@H](Cc1ccccc1)NC(=O)[C@H](CC(=O)O)NC(=O)[C@H](C)NC(=O)[C@H](CC(C)C)NC(=O)[C@H](CCCNC(=N)N)NC(=O)[C@H](CCC(N)=O)NC(=O)[C@@H](NC(=O)[C@H](C)NC(=O)[C@@H]1CSSC[C@H](NC(=O)[C@@H](N)CCCNC(=N)N)C(=O)N[C@@H](CC(N)=O)C(=O)N[C@@H]([C@@H](C)O)C(=O)N[C@@H](C)C(=O)N[C@@H]([C@@H](C)O)C(=O)N1)[C@@H](C)O)C(=O)N[C@@H](CC(C)C)C(=O)N1CCC[C@H]1C(=O)N1CCC[C@H]1C(=O)N[C@H](C(=O)N[C@@H](CC(N)=O)C(=O)N[C@H](C(=O)NCC(=O)N[C@@H](CO)C(=O)N[C@@H](CC(N)=O)C(=O)N[C@H](C(=O)N1C[C@H](O)C[C@H]1C(N)=O)[C@@H](C)O)C(C)C)[C@@H](C)O` [PD093] (H-RCNTATCATQRLADFLRHSSK([AEEA-AEEA-γGlu-C18 diacid])NLGPILPPTNVGSNT[Hyp]-NH2; disulfide 2-7 (inferred); N-terminus assumed), the EC50 in data set [1] came to 0.019 nM. In addition, in data set [2], the Dissolution property entry is “Clear”, the Freeze storage property result is “Clear” and the Freeze storage yield is 99.86%.
Regarding `CC[C@H](C)[C@H](NC(=O)[C@@H]1CCCN1C(=O)CNC(=O)[C@H](CC(C)C)NC(=O)[C@H](CCCCNC(=O)CC[C@H](NC(=O)CCCCCCCCCCCCCCCCC(=O)O)C(=O)O)NC(=O)[C@H](CC(N)=O)NC(=O)[C@H](CO)NC(=O)[C@H](CO)NC(=O)[C@H](Cc1c[nH]cn1)NC(=O)[C@H](CCCNC(=N)N)NC(=O)[C@H](CC(C)C)NC(=O)[C@H](Cc1ccccc1)NC(=O)[C@H](CC(=O)O)NC(=O)[C@H](C)NC(=O)[C@H](CC(C)C)NC(=O)[C@H](CCCNC(=N)N)NC(=O)[C@H](CCC(N)=O)NC(=O)[C@@H](NC(=O)[C@H](C)NC(=O)[C@@H]1CSSC[C@H](NC(=O)[C@@H](N)CCCNC(=N)N)C(=O)N[C@@H](CC(N)=O)C(=O)N[C@@H]([C@@H](C)O)C(=O)N[C@@H](C)C(=O)N[C@@H]([C@@H](C)O)C(=O)N1)[C@@H](C)O)C(=O)N[C@@H](CC(C)C)C(=O)N1CCC[C@H]1C(=O)N1CCC[C@H]1C(=O)N[C@H](C(=O)N[C@@H](CC(N)=O)C(=O)N[C@H](C(=O)NCC(=O)N[C@@H](CO)C(=O)N[C@@H](CC(N)=O)C(=O)N[C@H](C(=O)N1C[C@H](O)C[C@H]1C(N)=O)[C@@H](C)O)C(C)C)[C@@H](C)O` [PD088] (H-RCNTATCATQRLADFLRHSSNK([γGlu-C18 diacid])LGPILPPTNVGSNT[Hyp]-NH2; disulfide 2-7 (inferred); N-terminus assumed), in data set [1], the EC50 was 0.013 nM. Further, in data set [2], the Dissolution property entry is on record as “Clear”, the Freeze storage property entry is recorded as “Clear” and the Freeze storage yield stood at 120.04%.
Take `CC[C@H](C)[C@H](NC(=O)[C@@H]1CCCN1C(=O)CNC(=O)[C@H](CC(C)C)NC(=O)[C@H](CC(N)=O)NC(=O)[C@H](CC(N)=O)NC(=O)[C@H](CO)NC(=O)[C@H](CO)NC(=O)[C@H](Cc1c[nH]cn1)NC(=O)[C@H](CCCNC(=N)N)NC(=O)[C@H](CC(C)C)NC(=O)[C@H](Cc1ccccc1)NC(=O)[C@H](CC(=O)O)NC(=O)[C@H](C)NC(=O)[C@H](CC(C)C)NC(=O)[C@H](CCCNC(=N)N)NC(=O)[C@H](CCC(N)=O)NC(=O)[C@@H](NC(=O)[C@H](C)NC(=O)[C@@H]1CSSC[C@H](NC(=O)[C@H](CCCCN)NC(=O)COCCOCCNC(=O)COCCOCCNC(=O)CC[C@H](NC(=O)CCCCCCCCCCCCCCCCCCC(=O)O)C(=O)O)C(=O)N[C@@H](CC(N)=O)C(=O)N[C@@H]([C@@H](C)O)C(=O)N[C@@H](C)C(=O)N[C@@H]([C@@H](C)O)C(=O)N1)[C@@H](C)O)C(=O)N[C@@H](CC(C)C)C(=O)N1CCC[C@H]1C(=O)N1CCC[C@H]1C(=O)N[C@H](C(=O)N[C@@H](CC(N)=O)C(=O)N[C@H](C(=O)NCC(=O)N[C@@H](CO)C(=O)N[C@@H](CC(N)=O)C(=O)N[C@H](C(=O)N1C[C@H](O)C[C@H]1C(N)=O)[C@@H](C)O)C(C)C)[C@@H](C)O` [PD123] ({C20 diacid-γGlu-AEEA-AEEA}-KCNTATCATQRLADFLRHSSNNLGPILPPTNVGSNT[Hyp]-NH2; disulfide 2-7 (inferred)): in data set [1], the half-maximal effective concentration (EC50) worked out at 0.068 nM. Also, in data set [2], the Dissolution property result was “Clear”, the Freeze storage property result is given as “Clear” and the Freeze storage yield was determined as 102.11%.
Take `CC[C@H](C)[C@H](NC(=O)[C@H](CCCCNC(=O)COCCOCCNC(=O)COCCOCCNC(=O)CC[C@H](NC(=O)CCCCCCCCCCCCCCCCCCC(=O)O)C(=O)O)NC(=O)CNC(=O)[C@H](CC(C)C)NC(=O)[C@H](CC(N)=O)NC(=O)[C@H](CC(N)=O)NC(=O)[C@H](CO)NC(=O)[C@H](CO)NC(=O)[C@H](Cc1c[nH]cn1)NC(=O)[C@H](CCCNC(=N)N)NC(=O)[C@H](CC(C)C)NC(=O)[C@H](Cc1ccccc1)NC(=O)[C@H](CC(=O)O)NC(=O)[C@H](C)NC(=O)[C@H](CC(C)C)NC(=O)[C@H](CCCNC(=N)N)NC(=O)[C@H](CCC(N)=O)NC(=O)[C@@H](NC(=O)[C@H](C)NC(=O)[C@@H]1CSSC[C@H](NC(=O)[C@@H](N)CCCNC(=N)N)C(=O)N[C@@H](CC(N)=O)C(=O)N[C@@H]([C@@H](C)O)C(=O)N[C@@H](C)C(=O)N[C@@H]([C@@H](C)O)C(=O)N1)[C@@H](C)O)C(=O)N[C@@H](CC(C)C)C(=O)N1CCC[C@H]1C(=O)N1CCC[C@H]1C(=O)N[C@H](C(=O)N[C@@H](CC(N)=O)C(=O)N[C@H](C(=O)NCC(=O)N[C@@H](CO)C(=O)N[C@@H](CC(N)=O)C(=O)N[C@H](C(=O)N1C[C@H](O)C[C@H]1C(N)=O)[C@@H](C)O)C(C)C)[C@@H](C)O` [PD103] (H-RCNTATCATQRLADFLRHSSNNLGK([AEEA-AEEA-γGlu-C20 diacid])ILPPTNVGSNT[Hyp]-NH2; disulfide 2-7 (inferred); N-terminus assumed): the EC50 in data set [1] turned out to be 0.033 nM. In data set [2], the Dissolution property result is “Clear”, the Freeze storage property result was “Clear” and the Freeze storage yield turned out to be 98.68%.
Regarding `CC[C@H](C)[C@H](NC(=O)[C@@H]1CCCN1C(=O)[C@H](CCCCNC(=O)COCCOCCNC(=O)COCCOCCNC(=O)CC[C@H](NC(=O)CCCCCCCCCCCCCCCCCCC(=O)O)C(=O)O)NC(=O)[C@H](CC(C)C)NC(=O)[C@H](CC(N)=O)NC(=O)[C@H](CC(N)=O)NC(=O)[C@H](CO)NC(=O)[C@H](CO)NC(=O)[C@H](Cc1c[nH]cn1)NC(=O)[C@H](CCCNC(=N)N)NC(=O)[C@H](CC(C)C)NC(=O)[C@H](Cc1ccccc1)NC(=O)[C@H](CCC(=O)O)NC(=O)[C@H](C)NC(=O)[C@H](CC(C)C)NC(=O)[C@H](CCCNC(=N)N)NC(=O)[C@H](CCC(N)=O)NC(=O)[C@@H](NC(=O)[C@H](C)NC(=O)[C@@H]1CSSC[C@H](NC(=O)[C@@H](N)CCCNC(=N)N)C(=O)N[C@@H](CC(N)=O)C(=O)N[C@@H]([C@@H](C)O)C(=O)N[C@@H](C)C(=O)N[C@@H]([C@@H](C)O)C(=O)N1)[C@@H](C)O)C(=O)N[C@@H](CC(C)C)C(=O)N1CCC[C@H]1C(=O)N1CCC[C@H]1C(=O)N[C@H](C(=O)N[C@@H](CC(N)=O)C(=O)N[C@H](C(=O)NCC(=O)N[C@@H](CO)C(=O)N[C@@H](CC(N)=O)C(=O)N[C@H](C(=O)N1CCC[C@H]1C(N)=O)[C@@H](C)O)C(C)C)[C@@H](C)O` [PD004] (H-RCNTATCATQRLAEFLRHSSNNLK([AEEA-AEEA-γGlu-C20 diacid])PILPPTNVGSNTP-NH2; disulfide 2-7 (inferred); N-terminus assumed), the 50% effective concentration (EC50) in data set [1] was 0.102 nM. In data set [2], the Dissolution property result is on record as “Clear” and the Freeze storage property result was “Clear”.

The values are drawn from patent US20260166128A1, “HUMAN AMYLIN ANALOG, AND DERIVATIVE THEREOF AND USE THEREOF” (priority 2022, published 2026).
